Measurements from ChEMBL document CHEMBL1201862, “PubChem BioAssay data set” (2004).
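Tested at 5 concentrations; 48 h exposure; 96-well plates; endpoints linearly interpolated, else capped at highest concentration. Abbreviation: GI50, concentration required for 50% inhibition of growth.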 Activity calls are given as the source filed them. Rule as the data show it: active = GI50 up to about 1.1 µM and inactive = higher.

Experiments:
Assay in all cases: NCI-60 cell line screen, 48 h
786-0 = test system: 786-0
A549 = test system: A549
ACHN = test system: ACHN
BT-549 = test system: BT-549
CAKI-1 = test system: CAKI-1
CCRF-CEM = test system: CCRF-CEM
COLO 205 = test system: COLO 205
DU-145 = test system: DU-145
EKVX = test system: EKVX
HCC 2998 = test system: HCC 2998
HCT-116 = test system: HCT-116
HCT-15 = test system: HCT-15
HL-60 = test system: HL-60
HOP-62 = test system: HOP-62
HOP-92 = test system: HOP-92
HT-29 = test system: HT-29
Hs-578T = test system: Hs-578T
IGROV-1 = test system: IGROV-1
K562 = test system: K562
KM12 = test system: KM12
LOX IMVI = test system: LOX IMVI
M14 = test system: M14
MCF7 = test system: MCF7
MDA-MB-231 = test system: MDA-MB-231
MDA-MB-435 = test system: MDA-MB-435
MDA-N = test system: MDA-N
MOLT-4 = test system: MOLT-4
Malme-3M = test system: Malme-3M
NCI-H23 = test system: NCI-H23
NCI-H460 = test system: NCI-H460
NCI-H522 = test system: NCI-H522
NCI/ADR-RES = test system: NCI/ADR-RES
OVCAR-3 = test system: OVCAR-3
OVCAR-4 = test system: OVCAR-4
OVCAR-5 = test system: OVCAR-5
OVCAR-8 = test system: OVCAR-8
PC-3 = test system: PC-3
RPMI-8226 = test system: RPMI-8226
RXF 393 = test system: RXF 393
SF-268 = test system: SF-268
SF-295 = test system: SF-295
SF-539 = test system: SF-539
SK-MEL-28 = test system: SK-MEL-28
SK-MEL-2 = test system: SK-MEL-2
SK-MEL-5 = test system: SK-MEL-5
SK-OV-3 = test system: SK-OV-3
SN12C = test system: SN12C
SNB-19 = test system: SNB-19
SNB-75 = test system: SNB-75
SR = test system: SR
SW-620 = test system: SW-620
T47D = test system: T47D
TK-10 = test system: TK-10
U-251 = test system: U-251
UACC-257 = test system: UACC-257
UACC-62 = test system: UACC-62
UO-31 = test system: UO-31
A498 = test system: A498
NCI-H226 = test system: NCI-H226

Measured: GI50

COc1ccccc1/C=N/Nc1nnc2c3ccccc3c3ncccc3c2n1
> 100 µM: HCT-15
inactive: 786-0 28.1 µM | A549 > 100 µM | ACHN 57 µM | BT-549 41.7 µM | CAKI-1 > 100 µM | CCRF-CEM 17.6 µM | COLO 205 > 100 µM | DU-145 > 100 µM | EKVX 43.1 µM | HCC 2998 71.9 µM | HCT-116 72.4 µM | HL-60 > 100 µM | HOP-62 17.1 µM | HOP-92 14.6 µM | HT-29 57.4 µM | Hs-578T 21 µM | IGROV-1 53.1 µM | K562 70.8 µM | KM12 > 100 µM | LOX IMVI 64.1 µM | M14 50.5 µM | MCF7 > 100 µM | MDA-MB-231 26.2 µM | MDA-MB-435 > 100 µM | MDA-N > 100 µM | MOLT-4 60.3 µM | Malme-3M 49.1 µM | NCI-H23 > 100 µM | NCI-H460 45.1 µM | NCI-H522 70.6 µM | NCI/ADR-RES 38.1 µM | OVCAR-3 47.2 µM | OVCAR-4 17.8 µM | OVCAR-5 79.4 µM | OVCAR-8 30 µM | PC-3 > 100 µM | RPMI-8226 69.2 µM | RXF 393 18.1 µM | SF-268 29.9 µM | SF-295 6.14 µM | SF-539 19 µM | SK-MEL-28 > 100 µM | SK-MEL-2 24.2 µM | SK-MEL-5 89.5 µM | SK-OV-3 32.8 µM | SN12C 87.5 µM | SNB-19 39.2 µM | SNB-75 19.3 µM | SR 39.9 µM | SW-620 > 100 µM | T47D 39.7 µM | TK-10 28.6 µM | U-251 37.3 µM | UACC-257 > 100 µM | UACC-62 48.8 µM | UO-31 > 100 µM

Cc1nc2ccc(/N=N/N(C)C)cc2[nH]1
inactive: 786-0 > 100 µM | A498 > 100 µM | A549 > 100 µM | ACHN > 100 µM | BT-549 86.5 µM | CAKI-1 > 100 µM | CCRF-CEM 98.9 µM | COLO 205 > 100 µM | DU-145 > 100 µM | EKVX > 100 µM | HCC 2998 > 100 µM | HCT-116 > 100 µM | HOP-62 > 100 µM | HT-29 > 100 µM | Hs-578T > 100 µM | IGROV-1 > 100 µM | KM12 > 100 µM | LOX IMVI > 100 µM | M14 > 100 µM | MCF7 > 100 µM | MDA-MB-231 > 100 µM | MDA-MB-435 > 100 µM | MDA-N > 100 µM | MOLT-4 > 100 µM | Malme-3M > 100 µM | NCI-H226 > 100 µM | NCI-H460 > 100 µM | NCI-H522 > 100 µM | NCI/ADR-RES > 100 µM | OVCAR-3 > 100 µM | OVCAR-4 > 100 µM | OVCAR-5 > 100 µM | OVCAR-8 > 100 µM | PC-3 > 100 µM | RPMI-8226 > 100 µM | RXF 393 > 100 µM | SF-268 > 100 µM | SF-295 > 100 µM | SK-MEL-28 > 100 µM | SK-MEL-2 > 100 µM | SK-MEL-5 > 100 µM | SK-OV-3 > 100 µM | SN12C > 100 µM | SNB-19 > 100 µM | SNB-75 > 100 µM | SR > 100 µM | SW-620 > 100 µM | T47D > 100 µM | TK-10 > 100 µM | U-251 > 100 µM | UACC-257 > 100 µM | UACC-62 > 100 µM | UO-31 > 100 µM
> 100 µM: HCT-15
